The values below come from publication PMC12484987 (Scientific Reports, 2025).

The subject of series [1] is HepG2 (Hepatocarcinoma). The conditions noted are these: for Selectivity index SI = IC50(normal cell)/IC50(cancer cell line): MRC-5 vs HepG2.
Series [2] concerns MOLT-3 (Acute lymphoblastic leukemia). The conditions noted are these: for Selectivity index SI = IC50(normal cell)/IC50(cancer cell line): MRC-5 vs MOLT-3.
Series [3] deals with HuCCA-1 (Cholangiocarcinoma). As to conditions: for Selectivity index SI = IC50(normal cell)/IC50(cancer cell line): MRC-5 vs HuCCA-1.
In series [4] the test system is A549 (Lung carcinoma). The conditions noted are these: for Selectivity index SI = IC50(normal cell)/IC50(cancer cell line): MRC-5 vs A549.
In series [5] the test system is MDA-MB-231 (Hormone-independent breast cancer). As to conditions: for Selectivity index SI = IC50(normal cell)/IC50(cancer cell line): MRC-5 vs MDA-MB-231.
For series [6], the system named is S102 (Thai liver cancer). As to conditions: for Selectivity index SI = IC50(normal cell)/IC50(cancer cell line): MRC-5 vs S102.
Series [7] deals with HeLa (Cervical carcinoma). The conditions noted are these: for Selectivity index SI = IC50(normal cell)/IC50(cancer cell line): MRC-5 vs HeLa.
For series [8], the system named is T47-D (Hormone-dependent breast cancer). The conditions noted are these: for Selectivity index SI = IC50(normal cell)/IC50(cancer cell line): MRC-5 vs T47-D.
For series [9], the system named is H69AR (Lung cancer, multidrug resistance). The conditions noted are these: for Selectivity index SI = IC50(normal cell)/IC50(cancer cell line): MRC-5 vs H69AR.
The subject of series [10] is HL-60 (promyeloblast). The conditions noted are these: for Selectivity index SI = IC50(normal cell)/IC50(cancer cell line): MRC-5 vs HL-60.
The subject of series [11] is HepG2 (Hepatocarcinoma). Description: cells. The conditions noted are these: Homo sapiens, HepG2, 48 h, read-out: IC50 cytotoxic activity.
In series [12] the test system is MOLT-3 (Acute lymphoblastic leukemia). Description: cells. As to conditions: Homo sapiens, MOLT-3, 48 h, read-out: IC50 cytotoxic activity.
The subject of series [13] is HuCCA-1 (Cholangiocarcinoma). Description: cells. The conditions noted are these: Homo sapiens, HuCC-A1, 48 h, read-out: IC50 cytotoxic activity.
For series [14], the system named is A549 (Lung carcinoma). Briefly: cells. The conditions noted are these: Homo sapiens, A549, 48 h, read-out: IC50 cytotoxic activity.
The subject of series [15] is MDA-MB-231 (Hormone-independent breast cancer). Description: cells. As to conditions: Homo sapiens, MDA-MB-231, 48 h, read-out: IC50 cytotoxic activity.
Series [16] relates to S102 (Thai liver cancer). Briefly: cells. The conditions noted are these: Homo sapiens, 48 h, read-out: IC50 cytotoxic activity.
Series [17] relates to HeLa (Cervical carcinoma). Briefly: cells. The conditions noted are these: Homo sapiens, 48 h, read-out: IC50 cytotoxic activity.
Series [18] concerns T47-D (Hormone-dependent breast cancer). Description: cells. As to conditions: Homo sapiens, T47D, 48 h, read-out: IC50 cytotoxic activity.
Series [19] has as its system HL-60 (promyeloblast). Briefly: cells. As to conditions: Homo sapiens, HL-60, 48 h, read-out: IC50 cytotoxic activity.
A short description of another series: in vitro. The conditions noted are these: human, MRC-5 cells (normal embryonic lung cells).
Series [20] concerns MRC-5 (normal embryonic lung cell). As to conditions: for Percentage cytotoxicity: MRC-5, at maximum tested concentration of 50 µg/mL; for toxicity toward normal embryonic lung cells (MRC-5), in words: MRC-5, up to 50 µg/mL.
For series [21], the system named is H69AR (Lung cancer, multidrug resistance). Description: cells. As to conditions: Homo sapiens, 48 h, read-out: IC50 cytotoxic activity.
The next series deals with HIV-1 RT (Human immunodeficiency virus type 1 group M subtype B, UniProt P04585). The conditions noted are these: cited from earlier work.

“And” between values parts separate entries of the source, which are not always exact repeats. Equal values may be shown once. Read-outs that look alike come from different tables or passages of the source.

Take `COc1cccc2c1C(=O)c1c(O)c3c(c(O)c1C2=O)C[C@@](O)(C(=O)CO)C[C@@H]3O[C@H]1C[C@H](N)[C@H](O)[C@H](C)O1` [doxorubicin, reference compound]: the “Selectivity index SI = IC50(normal cell)/IC50(cancer cell line)” value was 5.17 in the series with HepG2 (Hepatocarcinoma) [1]; 155 in series [2]; 3.44 in series [3]; 5.17 with A549 (Lung carcinoma) [4]; 1.24 in [5]; 1.41 in the series on S102 (Thai liver cancer) [6]. Also, the “Selectivity index SI = IC50(normal cell)/IC50(cancer cell line)” value in series [7] came out at 7.75; in [8] it was 2.58; in series [9] it was 0.09; in the series on HL-60 (promyeloblast) [10], 31. The IC50 (in general, the point on the concentration scale where inhibition reaches its midpoint) in the series with HepG2 (Hepatocarcinoma) [11] amounted to 0.6 ± 0.02 µM; in series [12], 0.02 µM; in series [13] it was 0.9 ± 0.1 µM; in the series on A549 (Lung carcinoma) [14] it was 0.6 ± 0.1 µM; in series [15] it was 2.5 ± 0.1 µM; with S102 (Thai liver cancer) [16] it was 2.2 µM. Also, the IC50 in [17] amounted to 0.4 µM; in series [18], 1.2 µM; in the series on HL-60 (promyeloblast) [19], 0.1 µM. The IC50 at 48 h in the series “in vitro” was found to be 3.1 ± 0.5 µM.

As to `Cc1cc(C#N)cc(C)c1Oc1cc(Oc2c(C)cc(C#N)cc2C)c2cnccc2n1` [Compound 13b, 2,4-di-(2ˊ,6ˊ-dimethyl-4ˊ-cyanophenoxy)−1,6-naphthyridine], the “Selectivity index SI = IC50(normal cell)/IC50(cancer cell line)” value in the series with HepG2 (Hepatocarcinoma) [1] is > 1.59; in series [2] it was > 10.52; in [3] it was > 3.67; in the series on A549 (Lung carcinoma) [4] it was > 3.29; in [5], > 1.62; in the series with S102 (Thai liver cancer) [6] it was > 1.15. For the same molecule, the “Selectivity index SI = IC50(normal cell)/IC50(cancer cell line)” value in series [7] is > 4.87; in series [8], > 3.49; in [9] it was > 1.56; in the series with HL-60 (promyeloblast) [10], > 1.46. The molecule also gave a Percentage cytotoxicity in series [20] of 43%. Moreover, the “toxicity toward normal embryonic lung cells (MRC-5), in words” value in [20] was “non-toxic”. In addition, the IC50 in the series on HepG2 (Hepatocarcinoma) [11] is 74.7 ± 13.3 µM; in series [12] it was 11.3 ± 2.2 µM; in series [13], 32.4 ± 2.7 µM; in the series with A549 (Lung carcinoma) [14], 36.1 ± 0.6 µM; in series [15], 73.2 ± 8.1 µM; in the series with S102 (Thai liver cancer) [16], 103 ± 4.4 µM. For the same molecule, the IC50 was found to be 24.4 ± 2.5 µM in series [17], 34.1 ± 2.2 µM in series [18], 76 ± 6.54 µM in series [21] and 81.5 ± 19.5 µM in the series with HL-60 (promyeloblast) [19]. Moreover, in “in vitro”, the IC50 at 48 h is > 119 µM.

As to `Cc1cc(C#N)cc(C)c1Oc1cc(Oc2c(C)cc(C#N)cc2C)c2ccncc2n1` [Compound 14b, 2,4-di-(2ˊ,6ˊ-dimethyl-4ˊ-cyanophenoxy)−1,7-naphthyridine], the Percentage cytotoxicity turned out to be 34% with HepG2 (Hepatocarcinoma) [1] (HepG2, at maximum tested concentration of 50 µg/mL); 16% in series [2] (MOLT-3, at maximum tested concentration of 50 µg/mL); 0% in series [3] (HuCCA-1, at maximum tested concentration of 50 µg/mL); 8% in the series on A549 (Lung carcinoma) [4] (A549, at maximum tested concentration of 50 µg/mL); 0% in [20]; 22% in series [5] (MDA-MB-231, at maximum tested concentration of 50 µg/mL). In addition, the Percentage cytotoxicity in the series on S102 (Thai liver cancer) [6] (S102, at maximum tested concentration of 50 µg/mL) came out at 6%; in [7] (HeLa, at maximum tested concentration of 50 µg/mL), 24%; in series [8] (T47-D, at maximum tested concentration of 50 µg/mL) it was 0%; in [9] (H69AR, at maximum tested concentration of 50 µg/mL), 0%; in the series on HL-60 (promyeloblast) [10] (HL-60, at maximum tested concentration of 50 µg/mL), 24%. Besides, the “toxicity toward normal embryonic lung cells (MRC-5), in words” value in [20] was “non-toxic”. Further, the IC50 (with HepG2 (Hepatocarcinoma) [11]; in series [12]; in series [13]; in the series with A549 (Lung carcinoma) [14]; in [15]; with S102 (Thai liver cancer) [16]) was > 119 µM throughout. Also, the IC50 (in series [17]; in series [18]; in series [21]; with HL-60 (promyeloblast) [19]) was > 119 µM throughout. The half-maximal inhibitory concentration (IC50) at 48 h in the series “in vitro” was > 119 µM.

For the molecule `Cc1cc(C=O)cc(C)c1Oc1cc(Oc2c(C)cc(C=O)cc2C)c2cnccc2n1` [Compound 13a, 2,4-di-(2ˊ,6ˊ-dimethyl-4ˊ-formylphenoxy)−1,6-naphthyridine], the “Selectivity index SI = IC50(normal cell)/IC50(cancer cell line)” value with HepG2 (Hepatocarcinoma) [1] is 1.12; in series [2], 6.03; in series [3], 1.61; with A549 (Lung carcinoma) [4] it was 0.64; in series [5] it was 1.21; in the series on S102 (Thai liver cancer) [6], 0.98. Also, the “Selectivity index SI = IC50(normal cell)/IC50(cancer cell line)” value in [7] is listed as 2.83; in [8] it was 1.90; in series [9], 0.74; with HL-60 (promyeloblast) [10], 3.98. For the same molecule, the IC50 with HepG2 (Hepatocarcinoma) [11] was 60.7 ± 1 µM; in [12] it was 11.3 ± 2.7 µM; in series [13], 42.2 ± 2.6 µM; in the series on A549 (Lung carcinoma) [14], 107 ± 2.6 µM; in series [15], 56.3 ± 3.7 µM; in the series on S102 (Thai liver cancer) [16], 69.8 ± 2.8 µM. For the same molecule, the half-maximal inhibitory concentration (IC50) in series [17] is 24.1 ± 0.4 µM; in [18] it was 35.9 ± 2.1 µM; in series [21], 91.8 ± 2.9 µM; in the series with HL-60 (promyeloblast) [19], 17.1 ± 2.4 µM. The molecule further had an IC50 at 48 h in “in vitro” of 68.1 ± 1.1 µM.

With `Cc1cc(C#N)cc(C)c1Oc1cc(Nc2ccc(C#N)cn2)nc2ccccc12` [4-(2’,6’-dimethyl-4’-cyanophenoxy)−2-(5’’-cyanopyridin-2’’ylamino)quinoline], the “percentage inhibition against HIV-1 RT” value at HIV-1 RT (quinolines of the previous publication) is 45% and 45.1%. The IC50 on HIV-1 RT (read-out: IC50 against HIV-1 RT, quinolines of the previous publication) is 1.22 µM.

Turning to `COc1cc([C@@H]2c3cc4c(cc3[C@@H](O[C@@H]3O[C@@H]5CO[C@@H](C)O[C@H]5[C@H](O)[C@H]3O)[C@H]3COC(=O)[C@H]23)OCO4)cc(OC)c1O` [etoposide, reference compound], the 50% inhibitory concentration (IC50) in series [12] came out at 0.03 ± 0.02 µM; in the series with HL-60 (promyeloblast) [19], 0.8 ± 0.1 µM.

`N#Cc1ccc(Nc2cc(Oc3ccc(C#N)cc3)c3ccccc3n2)cc1` [4-(4’-cyanophenoxy)−2-(4’’-cyanophenyl)-aminoquinoline]: the “percentage inhibition against HIV-1 RT” value at HIV-1 RT (previous study) was 39.71%.

Regarding `Cc1cc(C=O)cc(C)c1Oc1cc(Oc2c(C)cc(C=O)cc2C)c2ccncc2n1` [Compound 14a, 2,4-di-(2ˊ,6ˊ-dimethyl-4ˊ-formylphenoxy)−1,7-naphthyridine], the “Selectivity index SI = IC50(normal cell)/IC50(cancer cell line)” value in the series with HepG2 (Hepatocarcinoma) [1] is on record as 1.21; in [2] it was 6.80; in [3], 3.01; in the series on A549 (Lung carcinoma) [4], 1.07; in series [5] it was 1.32; in the series with S102 (Thai liver cancer) [6] it was 0.97. For the same molecule, the “Selectivity index SI = IC50(normal cell)/IC50(cancer cell line)” value is given as 5.35 in series [7], 2.50 in [8], 1.25 in series [9] and 6.28 in the series on HL-60 (promyeloblast) [10]. Moreover, the IC50 with HepG2 (Hepatocarcinoma) [11] was found to be 53.9 ± 3.4 µM; in [12] it was 9.6 ± 1.1 µM; in series [13], 21.7 ± 1.6 µM; in the series with A549 (Lung carcinoma) [14] it was 60.8 ± 1 µM; in [15], 49.4 ± 6.7 µM; in the series with S102 (Thai liver cancer) [16], 67.6 ± 2.2 µM. Further, the half-inhibitory concentration (IC50) in series [17] worked out at 12.2 ± 0.7 µM; in series [18] it was 26.1 ± 5 µM; in series [21], 52.2 ± 1.6 µM; in the series on HL-60 (promyeloblast) [19] it was 10.4 ± 0.8 µM. For the same molecule, the IC50 at 48 h in “in vitro” was 65.3 ± 2.1 µM.

Molecule `O=C1Nc2ccc(Cl)cc2[C@@](C#CC2CC2)(C(F)(F)F)O1` [EFV, efavirenz, reference compound] registered an IC50 at 48 h in “in vitro” of 95.6 ± 6 µM.
